Assays:
Assay in all cases: Test D pre-/postemergence controlled growth environment herbicide test
Format in all cases: in vivo
Conditions in all cases: scale 0 to 100
[1] = tested on: Russian thistle (Salsola kali)
How it was run: (§1)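 Pre-emergence treatment on silt loam soil and post-emergence treatment of 1- to 4-leaf plants (2–18 cm) in peat-based medium, compounds in a non-phytotoxic solvent with surfactant. Visual rating against untreated controls after 14–21 d in a controlled environment, scale 0 (no effect) to 100 (complete control).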

[2] = tested on: barley, spring (spring barley, Hordeum vulgare)
How it was run: as §1

[3] = tested on: field violet (Viola arvensis)
How it was run: as §1

[4] = tested on: deadnettle (henbit deadnettle, Lamium amplexicaule)
How it was run: as §1

[5] = tested on: galium (catchweed bedstraw, Galium aparine)
How it was run: as §1

[6] = tested on: blackgrass (Alopecurus myosuroides)
How it was run: as §1

[7] = tested on: ryegrass, Italian (Italian ryegrass, Lolium multiflorum)
How it was run: as §1

[8] = tested on: canarygrass (Phalaris minor)
How it was run: as §1

[9] = tested on: lambsquarters (Chenopodium album)
How it was run: as §1

[10] = tested on: wheat, spring (spring wheat, Triticum aestivum)
How it was run: as §1

kochia (Kochia scoparia) = tested on: kochia (Kochia scoparia)
How it was run: as §1

Measured: Plant response rating

COc1cc(=O)n(-c2ccc(F)cc2)nc1Cc1ccnc(C(F)(F)F)c1 [Compound 17, 2-(4-fluorophenyl)-5-methoxy-6-[[2-(trifluoromethyl)-4-pyridinyl]methyl]-3 (2H)-pyridazinone]
80: [3]; Postemergence, 125 g ai/ha | [7]; Preemergence, 500 g ai/ha | [9]; Postemergence, 125 g ai/ha | kochia (Kochia scoparia); Postemergence, 250 g ai/ha
5: [2]; Postemergence, 31 g ai/ha | [5]; Preemergence, 31 g ai/ha | [5]; Preemergence, 62 g ai/ha
90: [2]; Preemergence, 500 g ai/ha | [3]; Preemergence, 125 g ai/ha | [5]; Postemergence, 125 g ai/ha | [6]; Preemergence, 500 g ai/ha | [9]; Preemergence, 31 g ai/ha | [9]; Preemergence, 250 g ai/ha | [9]; Preemergence, 500 g ai/ha | [10]; Preemergence, 500 g ai/ha | kochia (Kochia scoparia); Postemergence, 500 g ai/ha
85: [3]; Preemergence, 62 g ai/ha
20: [2]; Preemergence, 62 g ai/ha | [2]; Preemergence, 125 g ai/ha | [5]; Preemergence, 125 g ai/ha | [6]; Postemergence, 250 g ai/ha | [8]; Postemergence, 62 g ai/ha | [8]; Postemergence, 125 g ai/ha | [10]; Postemergence, 125 g ai/ha | [10]; Postemergence, 250 g ai/ha
100: [1]; Postemergence, 125 g ai/ha | [1]; Postemergence, 250 g ai/ha | [1]; Postemergence, 500 g ai/ha | [1]; Preemergence, 62 g ai/ha | [1]; Preemergence, 125 g ai/ha | [1]; Preemergence, 250 g ai/ha | [1]; Preemergence, 500 g ai/ha | [3]; Postemergence, 250 g ai/ha | [3]; Postemergence, 500 g ai/ha | [3]; Preemergence, 250 g ai/ha | [3]; Preemergence, 500 g ai/ha | [4]; Postemergence, 500 g ai/ha | [4]; Preemergence, 31 g ai/ha | [4]; Preemergence, 62 g ai/ha | [4]; Preemergence, 125 g ai/ha | [4]; Preemergence, 250 g ai/ha | [4]; Preemergence, 500 g ai/ha | [5]; Postemergence, 500 g ai/ha | [5]; Preemergence, 250 g ai/ha | [5]; Preemergence, 500 g ai/ha | [9]; Postemergence, 500 g ai/ha | kochia (Kochia scoparia); Preemergence, 31 g ai/ha | kochia (Kochia scoparia); Preemergence, 62 g ai/ha | kochia (Kochia scoparia); Preemergence, 125 g ai/ha | kochia (Kochia scoparia); Preemergence, 250 g ai/ha | kochia (Kochia scoparia); Preemergence, 500 g ai/ha
35: [2]; Postemergence, 500 g ai/ha | [7]; Postemergence, 500 g ai/ha | [8]; Postemergence, 500 g ai/ha
25: kochia (Kochia scoparia); Postemergence, 31 g ai/ha
60: [3]; Postemergence, 31 g ai/ha | [6]; Preemergence, 250 g ai/ha | kochia (Kochia scoparia); Postemergence, 62 g ai/ha
50: [4]; Postemergence, 31 g ai/ha | [4]; Postemergence, 62 g ai/ha | [5]; Postemergence, 31 g ai/ha | [6]; Postemergence, 500 g ai/ha | [7]; Preemergence, 250 g ai/ha | [8]; Preemergence, 500 g ai/ha | [9]; Postemergence, 62 g ai/ha
65: [4]; Postemergence, 125 g ai/ha
75: [3]; Preemergence, 31 g ai/ha
15: [2]; Postemergence, 125 g ai/ha | [2]; Postemergence, 250 g ai/ha | [2]; Preemergence, 31 g ai/ha | [7]; Postemergence, 250 g ai/ha | [10]; Postemergence, 62 g ai/ha | [10]; Preemergence, 62 g ai/ha
70: [2]; Preemergence, 250 g ai/ha | [3]; Postemergence, 62 g ai/ha | [5]; Postemergence, 62 g ai/ha | [10]; Preemergence, 250 g ai/ha | kochia (Kochia scoparia); Postemergence, 125 g ai/ha
0: [1]; Preemergence, 31 g ai/ha | [6]; Preemergence, 31 g ai/ha | [7]; Preemergence, 31 g ai/ha | [7]; Preemergence, 62 g ai/ha | [7]; Preemergence, 125 g ai/ha | [8]; Preemergence, 31 g ai/ha | [8]; Preemergence, 62 g ai/ha | [10]; Preemergence, 31 g ai/ha
30: [1]; Postemergence, 31 g ai/ha | [1]; Postemergence, 62 g ai/ha | [6]; Preemergence, 125 g ai/ha | [8]; Postemergence, 250 g ai/ha | [8]; Preemergence, 250 g ai/ha | [10]; Postemergence, 500 g ai/ha | [10]; Preemergence, 125 g ai/ha
10: [2]; Postemergence, 62 g ai/ha | [6]; Postemergence, 31 g ai/ha | [6]; Postemergence, 62 g ai/ha | [6]; Postemergence, 125 g ai/ha | [6]; Preemergence, 62 g ai/ha | [7]; Postemergence, 31 g ai/ha | [7]; Postemergence, 62 g ai/ha | [7]; Postemergence, 125 g ai/ha | [8]; Postemergence, 31 g ai/ha | [8]; Preemergence, 125 g ai/ha | [9]; Postemergence, 31 g ai/ha | [10]; Postemergence, 31 g ai/ha
95: [9]; Postemergence, 250 g ai/ha | [9]; Preemergence, 62 g ai/ha
98: [4]; Postemergence, 250 g ai/ha | [5]; Postemergence, 250 g ai/ha
